The values that follow come from patent US9540702B2, “Stabilization of enzymes with stable coenzymes” (Roche Diabetes Care, Inc., priority 2009, dated 2017).

For series [1], the target named is GlucDH_E96G_E170K (GlucDH-mut1) (Bacillus subtilis, UniProt P12310, A229V/A236S/E170K/E96G/Q252K). Description: Residual activity of GlucDH mutant 1 after storage with coenzyme. The series is classed as biochemical. As to conditions: 24 weeks at 32° C. and 85% relative air humidity. Here is the method:
(§1) carbaNAD (FIG. 1A) or NAD were added to the glucose-specific GlucDH. These formulations were each applied to Pokalon foils (Lonza) and, after drying, stored under warm and humid conditions (32° C., 85% relative air humidity). Subsequently, the reaction kinetics and the function curve were determined at regular intervals. In parallel at each of the measurement times a cNAD/NAD analysis and a determination of the residual activity of the enzyme were carried out.
If a mutant is used instead of the wild-type enzyme (from Bacillus subtilis), it is possible to further increase the residual activity of GlucDH. After 24 weeks storage at 32° C. and 85% relative air humidity in the presence of cNAD, the residual activity of a mutant GlucDH_E96G_E170K with the amino acid substitutions glutamic acid→glycine at position 96 and glutamic acid→lysine at position 170 (GlucDH-mut1) of the wild-type enzyme is about 70%, whereas the residual activity of a mutant GlucDH_E170K_K252L with the amino acid substitutions glutamic acid→lysine at position 170 and lysine→leucine at position 252 (GlucDH-mut2) is about 50% (FIG. 8).

For series [2], the target named is T1, alcohol dehydrogenase (ADH) (Saccharomyces cerevisiae, UniProt P00330).
T1 sequence (P00330 1-348): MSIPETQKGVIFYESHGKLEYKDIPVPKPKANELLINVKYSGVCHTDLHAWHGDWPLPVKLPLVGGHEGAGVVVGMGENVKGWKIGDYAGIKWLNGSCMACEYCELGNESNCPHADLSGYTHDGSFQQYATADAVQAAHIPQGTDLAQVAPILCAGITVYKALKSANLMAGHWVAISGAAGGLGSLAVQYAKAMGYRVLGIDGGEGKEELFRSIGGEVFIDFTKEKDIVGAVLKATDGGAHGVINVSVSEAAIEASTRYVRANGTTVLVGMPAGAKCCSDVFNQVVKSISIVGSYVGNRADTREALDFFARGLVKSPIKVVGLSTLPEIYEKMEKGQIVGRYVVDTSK
Briefly: Stability of alcohol dehydrogenase with coenzyme in a liquid phase at 35° C. The series is classed as biochemical, yeast. As to conditions: 65 hours at 35° C., 5 mg/ml ADH, 50 mg/ml coenzyme, pH 9.0. Here is the method:
FIG. 12 is a graphical illustration of the stability of alcohol dehydrogenase from yeast in the presence of NAD or cNAD in a liquid phase at 35° C. for a period of 65 hours with test conditions of 5 mg/ml ADH; 50 mg/ml NAD or cNAD; buffer: 75 mM Na4P2O7; glycine, pH 9.0; temperature 35° C.
cNAD or NAD was added to a detection solution containing alcohol dehydrogenase. These mixtures were stored at 2-8° C. and at 35° C. Subsequently, the stability of alcohol dehydrogenase (ADH) was checked at regular intervals and the residual activity of the enzyme was determined.
The residual activity of alcohol dehydrogenase in the presence of the native coenzyme NAD is at about 6% after 65 hours at 35° C., whereas the residual activity of the enzyme in the presence of the artificial coenzyme cNAD is still at about 60%.

The nature of series [3]: Residual content of coenzyme in glucose detection reagent after storage at 32° C. and 85% relative air humidity. In kind it is physicochemical. As to conditions: 24 weeks storage at 32° C. and 85% relative air humidity. As to the method:
as §1
According to this the residual content of cNAD in a glucose detection reagent is still about 80% of the initial value after 24 weeks storage (at 32° C. and 85% relative air humidity), whereas the content of NAD in a glucose detection reagent stabilized with NAD is already reduced to about 35% of the initial value after 5 weeks and, by extrapolation, is reduced to zero after about 17 weeks.

Series [4] concerns the target L lactate dehydrogenase (from rabbit) (Oryctolagus cuniculus, UniProt P13491). Description: DSC of coenzyme binding. As to conditions: 3.8 mM ligand; 0.1 M Tris buffer, pH 8.5.

For `NC(=O)c1ccc[n+]([C@@H]2C[C@H](COP(=O)([O-])OP(=O)(O)OC[C@H]3O[C@@H](n4cnc5c(N)ncnc54)[C@H](O)[C@@H]3O)[C@@H](O)[C@H]2O)c1` [carbaNAD], the “residual activity of GlucDH-mut1” value in series [1] is “about 70%”. Besides, the “residual activity of alcohol dehydrogenase” value in series [2] is recorded as “about 60%”. Also, the “residual content of coenzyme in glucose detection reagent” value in series [3] is “about 80 % of the initial value”. In series [4], this compound had a TM of 60.2 °C and a ΔHcal of 66 kcal/mol.
